From US20200308171A1, “BIFUNCTIONAL INHIBITORS WITH EGFR HAVING A E3 UBIQUITIN LIGASE MOIETY” (Hoffmann-La Roche Inc., priority 2017, published 2020)
Counter-ions that a name gives are not always drawn.

Each compound was assayed against T1, EGFR T790M/L858R/C797S (Homo sapiens, UniProt P00533, C797S/L858R/T790M) (assay: EGFR Degradation Assay (Cellular), FRET quantification of total EGFR). Conditions: BaF3 EGFR mutant cell line (EGFR T790M/L858R/C797S); 4-hour incubation; total EGFR FRET kit; top concentration 1 μM, 11 points; read-out: IC50 [nM] mutant EGFR degradation.
T1 construct: expressed in transfected cells; host or cells: BaF3 (murine pro-B) cells stably transduced with pCDH lentiviral vector, PGK promoter
T1 sequence (P00533 25-1210 T790M/C797S/L858R): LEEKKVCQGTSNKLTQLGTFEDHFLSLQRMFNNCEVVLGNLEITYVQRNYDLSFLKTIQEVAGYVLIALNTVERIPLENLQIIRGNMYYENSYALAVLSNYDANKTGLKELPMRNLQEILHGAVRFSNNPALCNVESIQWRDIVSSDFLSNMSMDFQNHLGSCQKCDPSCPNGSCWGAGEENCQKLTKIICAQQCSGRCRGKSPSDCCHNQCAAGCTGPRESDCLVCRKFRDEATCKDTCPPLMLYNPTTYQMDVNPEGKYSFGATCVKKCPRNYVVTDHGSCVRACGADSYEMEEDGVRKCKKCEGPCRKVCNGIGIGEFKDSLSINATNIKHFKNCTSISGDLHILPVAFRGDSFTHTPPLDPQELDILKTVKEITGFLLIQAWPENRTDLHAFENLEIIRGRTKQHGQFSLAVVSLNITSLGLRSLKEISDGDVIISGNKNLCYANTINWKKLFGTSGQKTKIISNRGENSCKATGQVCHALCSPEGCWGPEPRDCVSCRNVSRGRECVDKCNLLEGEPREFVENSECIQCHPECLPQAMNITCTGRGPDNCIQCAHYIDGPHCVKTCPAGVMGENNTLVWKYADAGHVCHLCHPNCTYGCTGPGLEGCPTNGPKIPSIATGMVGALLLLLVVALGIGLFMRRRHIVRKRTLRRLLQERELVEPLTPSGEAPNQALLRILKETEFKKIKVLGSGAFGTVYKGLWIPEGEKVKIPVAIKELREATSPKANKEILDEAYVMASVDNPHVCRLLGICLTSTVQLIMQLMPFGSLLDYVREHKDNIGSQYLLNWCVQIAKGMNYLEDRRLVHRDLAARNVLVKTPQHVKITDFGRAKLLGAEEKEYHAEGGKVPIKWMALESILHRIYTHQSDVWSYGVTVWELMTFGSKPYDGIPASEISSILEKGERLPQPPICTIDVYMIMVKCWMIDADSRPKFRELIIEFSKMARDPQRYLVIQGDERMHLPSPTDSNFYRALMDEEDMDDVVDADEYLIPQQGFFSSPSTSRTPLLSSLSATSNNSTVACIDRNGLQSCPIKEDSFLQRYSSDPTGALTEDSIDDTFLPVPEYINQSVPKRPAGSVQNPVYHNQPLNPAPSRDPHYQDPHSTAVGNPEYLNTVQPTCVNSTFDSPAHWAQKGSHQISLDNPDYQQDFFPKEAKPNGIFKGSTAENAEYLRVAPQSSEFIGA
Assay type: cell-based
Experimental: EGFR Degradation Assay (Cellular)
The BaF3 parental line was purchased from DSMZ and grown in RPMI media supplemented with 10% FBS and 10 ng/mL interleukin 3 (IL-3) (Thermo Fisher Scientific). EGFR mutants ([…]) were cloned into the pCDH lentiviral vector (SystemBio) under the control of a PGK promoter and confirmed by DNA sequencing. The resulting gene expression vector for each mutant was mixed with packaging vectors and cotransfected into 2×10E6 HEK293T cells (ATCC) in 10 mL of DMEM media to generate lentiviral particles according to the manufacturers protocol (Origene).
Three days post-transfection, the viral supernatant was harvested and filtered. In one well of a 12-well plate, 0.5 mL of viral supernatant was added to 2E6 Ba/F3 cells contained in 1.5 mL of RPMI media including 10% FBS, 10 ng/mL IL-3, and 5 μg/mL polybrene (Invitrogen). The plate was centrifuged at 2,000 rpm for 1 hour at room temperature and infected cells were kept in a tissue culture incubator overnight at 37° C. The cells were washed once in fresh BaF3 media and reseeded at 0.5E6 cells/well of a 12-well plate in media supplemented with 0.5 μg/mL puromycin. The cells were maintained in this media for 3 weeks. IL-3-independent, EGFR mutant transformed cells were routinely maintained in RPMI medium supplemented with 10% FBS.
RPMI 1640 no-phenol red medium and fetal bovine serum (FBS) were purchased from Gibco (Grand Island, N.Y., USA). EGFR total kit and EGFR phospho-Y1068 kit were purchased from Cisbio (Bedford, Mass., USA). BaF3 EGFR mutant cell lines (EGFR T790M/L858R/C797S) cell line was generated in house, according to the protocol reported above. Cell culture flasks and 384-well microplates were acquired from VWR (Radnor, Pa., USA).
EGFR degradation was determined based on quantification of FRET signal using EGFR total kit. The FRET signal detected correlates with total EGFR protein level in cells. Briefly, test compounds were added to the 384-well plate from a top concentration of 1 μM with 11 points, half log titration in quadruplicates. Then, BaF3 EGFR mutant cell lines (EGFR T790M/L858R/C797S) were added into 384-well plates at a cell density of 10000 cells per well. The plates were kept at 37° C. with 5% CO2 for 4 hours. After 4-hour incubation, 4× lysis buffer was added to the cells, and then microplate was agitated on plate shaker at 500 rpm for 30 minutes at room temperature. Next, total EGFR antibody solution was added to the cells and the cells were incubated for another 4 hours at room temperature. Finally, FRET signal was acquired on EnVision™ Multilabel Reader (PerkinElmer, Santa Clara, Calif., USA). The cells treated in the absence of the test compound were the negative control and lysis buffer with antibody solution only were the positive control.

Row | Structure (SMILES) | DC50
1 | CO[C@H]1CCN(c2nccc(Nc3cc4c(cn3)c(C(=O)NC3CCN(CCCOC5CCN(c6cccc7c6C(=O)N(C6CCC(=O)NC6=O)C7=O)CC5)CC3)cn4C(C)C)n2)C[C@H]1F (mixture of isomers) [Example 17, N-[1-[3-[[1-[2-[(3RS)-2,6-Dioxo-3-piperidyl]-1,3-dioxo-isoindolin-4-yl]-4-piperidyl]oxy]propyl]-4-piperidyl]-6-[[2-[(3R,4S)-3-fluoro-4-methoxy-1-piperidyl]pyrimidin-4-yl]amino]-1-isopropyl-pyrrolo[3,2-c]pyridine-3-carboxamide] | 74 nM
2 | CO[C@H]1CCN(c2nccc(Nc3cc4c(cn3)c(C(=O)NC3CCN(CCCC5CCN(c6cccc7c6C(=O)N(C6CCC(=O)NC6=O)C7=O)CC5)CC3)cn4C(C)C)n2)C[C@H]1F (mixture of isomers) [Example 12, N-[1-[3-[1-[2-[(3RS)-2,6-Dioxo-3-piperidyl]-1,3-dioxo-isoindolin-4-yl]-4-piperidyl]propyl]-4-piperidyl]-6-[[2-[(3R,4S)(3S,4R)-3-fluoro-4-methoxy-1-piperidyl]pyrimidin-4-yl]amino]-1-isopropyl-pyrrolo[3,2-c]pyridine-3-carboxamide trifluoroacetate] | 69 nM
3 | COC1CCN(c2nccc(Nc3cc4c(cn3)c(C(=O)NC3CCN(CCCCCCNc5cccc6c5C(=O)N(C5CCC(=O)NC5=O)C6=O)CC3)cn4C3CCCC3)n2)CC1 (racemic) [Example 4, 1-Cyclopentyl-N-[1-[6-[[2-[(3RS)-2,6-dioxo-3-piperidyl]-1,3-dioxo-isoindolin-4-yl]amino]hexyl]-4-piperidyl]-6-[[2-(4-methoxy-1-piperidyl)pyrimidin-4-yl]amino]pyrrolo[3,2-c]pyridine-3-carboxamide] | 38 nM
4 | CO[C@H]1CCN(c2nccc(Nc3cc4c(cn3)c(C(=O)NC3CCN(CCCOC5CN(c6cccc7c6C(=O)N(C6CCC(=O)NC6=O)C7=O)C5)CC3)cn4C(C)C)n2)C[C@H]1F (mixture of isomers) [Example 22, N-[1-[3-[1-[2-[(3RS)-2,6-Dioxo-3-piperidyl]-1,3-dioxo-isoindolin-4-yl]azetidin-3-yl]oxypropyl]-4-piperidyl]-6-[[2-[(3R,4S)-3-fluoro-4-methoxy-l-piperidyl]pyrimidin-4-yl]amino]-1-isopropyl-pyrrolo[3,2-c]pyridine-3-carboxamide] | 26 nM
5 | CO[C@H]1CCN(c2nccc(Nc3cc4c(cn3)c(C(=O)NC3CCN(CCCCCCNc5cccc6c5C(=O)N(C5CCC(=O)NC5=O)C6=O)CC3)cn4C(C)C)n2)C[C@H]1F (mixture of isomers) [Example 5, N-[1-[6-[[2-[(3RS)-2,6-Dioxo-3-piperidyl]-1,3-dioxo-isoindolin-4-yl]amino]hexyl]-4-piperidyl]-6-[[2-[(3R,4S)(3S,4R)-3-fluoro-4-methoxy-1-piperidyl]pyrimidin-4-yl]amino]-1-isopropyl-pyrrolo[3,2-c]pyridine-3-carboxamide] | 28 nM
6 | CO[C@@H]1CCN(c2nccc(Nc3cc4c(cn3)c(C(=O)NC3CCN(CCCCCCNc5cccc6c5C(=O)N(C5CCC(=O)NC5=O)C6=O)CC3)nn4C(C)C)n2)C[C@@H]1F (mixture of isomers) [Example 21, N-[1-[6-[[2-[(3RS)-2,6-Dioxo-3-piperidyl]-1,3-dioxo-isoindolin-4-yl]amino]hexyl]-4-piperidyl]-6-[[2-[(3S,4R)-3-fluoro-4-methoxy-1-piperidyl]pyrimidin-4-yl]amino]-1-isopropyl-pyrazolo[4,3-c]pyridine-3-carboxamide] | 2 nM
7 | CO[C@H]1CCN(c2nccc(Nc3cc4c(cn3)c(C(=O)NC3CCN(CCCCNc5cccc6c5C(=O)N(C5CCC(=O)NC5=O)C6=O)CC3)cn4C(C)C)n2)C[C@H]1F (mixture of isomers) [Example 14, N-[1-[4-[[2-[(3RS)-2,6-Dioxo-3-piperidyl]-1,3-dioxo-isoindolin-4-yl]amino]butyl]-4-piperidyl]-6-[[2-[(3R,4S)-3-fluoro-4-methoxy-1-piperidyl]pyrimidin-4-yl]amino]-1-isopropyl-pyrrolo[3,2-c]pyridine-3-carboxamide] | 41 nM
8 | CO[C@@H]1CCN(c2nccc(Nc3cc4c(cn3)c(C(=O)NC3CCN(CCCCCCNc5cccc6c5C(=O)N(C5CCC(=O)NC5=O)C6=O)CC3)cn4C(C)C)n2)C[C@@H]1F (mixture of isomers) [Example 8, N-[1-[6-[[2-[(3RS)-2,6-Dioxo-3-piperidyl]-1,3-dioxo-isoindolin-4-yl]amino]hexyl]-4-piperidyl]-6-[[2-[(3S,4R)-3-fluoro-4-methoxy-1-piperidyl]pyrimidin-4-yl]amino]-1-isopropyl-pyrrolo[3,2-c]pyridine-3-carboxamide] | 46 nM
9 | COC1CCN(c2nccc(Nc3cc4c(cn3)c(N3CCC(C(=O)NC5CCN(CCCCCCNc6cccc7c6C(=O)N(C6CCC(=O)NC6=O)C7=O)CC5)C3)nn4C(C)C)n2)CC1 (racemic) [Example 6, (3RS)—N-[1-[6-[[2-[(3RS)-2,6-Dioxo-3-piperidyl]-1,3-dioxo-isoindolin-4-yl]amino]hexyl]-4-piperidyl]-1-[1-isopropyl-6-[[2-(4-methoxy-1-piperidyl)pyrimidin-4-yl]amino]pyrazolo[4,3-c]pyridin-3-yl]pyrrolidine-3-carboxamide] | 46 nM
10 | CO[C@H]1CCN(c2nccc(Nc3cc4c(cn3)c(C(=O)NC3CCN(CCCC5CN(c6cccc7c6C(=O)N(C6CCC(=O)NC6=O)C7=O)C5)CC3)cn4C(C)C)n2)C[C@H]1F (mixture of isomers) [Example 24, N-[1-[3-[1-[2-[(3RS)-2,6-Dioxo-3-piperidyl]-1,3-dioxo-isoindolin-4-yl]azetidin-3-yl]propyl]-4-piperidyl]-6-[[2-[(3R,4S)-3-fluoro-4-methoxy-1-piperidyl]pyrimidin-4-yl]amino]-1-isopropyl-pyrrolo[3,2-c]pyridine-3-carboxamide] | 5 nM
11 | CO[C@H]1CCN(c2nccc(Nc3cc4c(cn3)c(C(=O)NC3CCN(CCC5CCN(c6ccc7c(c6)C(=O)N(C6CCC(=O)NC6=O)C7=O)CC5)CC3)cn4C(C)C)n2)C[C@H]1F (mixture of isomers) [Example 16, N-[1-[2-[1-[2-[(3RS)-2,6-Dioxo-3-piperidyl]-1,3-dioxo-isoindolin-5-yl]-4-piperidyl]ethyl]-4-piperidyl]-6-[[2-[(3R,4S)-3-fluoro-4-methoxy-1-piperidyl]pyrimidin-4-yl]amino]-1-isopropyl-pyrrolo[3,2-c]pyridine-3-carboxamide] | 28 nM
12 | CO[C@H]1CCN(c2nccc(Nc3cc4c(cn3)c(C(=O)NC3CCN(CCC[C@H]5CC[C@H](Nc6cccc7c6C(=O)N(C6CCC(=O)NC6=O)C7=O)CC5)CC3)cn4C(C)C)n2)C[C@H]1F (mixture of isomers) [Example 20, N-[1-[3-[4-[[2-[(3RS)-2,6-Dioxo-3-piperidyl]-1,3-dioxo-isoindolin-4-yl]amino]cyclohexyl]propyl]-4-piperidyl]-6-[[2-[(3R,4S)-3-fluoro-4-methoxy-l-piperidyl]pyrimidin-4-yl]amino]-1-isopropyl-pyrrolo[3,2-c]pyridine-3-carboxamide] | 15 nM
